Experiments:
Test in all cases: selective drug sensitivity score (sDSS, relative to normal bone marrow) (sDSS (score)); higher = more potent and effective on the cell line relative to normal bone marrow cells
Details in all cases: 72 h
380 = system: 380
MN-60 = system: MN-60
COG-LL-317 = system: COG-LL-317
MHH-CALL-2 = system: MHH-CALL-2
COG-LL-394h = system: COG-LL-394h
NALM-6 = system: NALM-6
P30-OHKUBO = system: P30-OHKUBO
ALL-SIL = system: ALL-SIL
SEM cells = system: SEM cells
PEER = system: PEER
MHH-CALL-4 = system: MHH-CALL-4
SUP-B15 = system: SUP-B15
RPMI-8402 = system: RPMI-8402
KOPN-8 = system: KOPN-8
HAL-01 = system: HAL-01
ALL-PO = system: ALL-PO
COG-LL-355h = system: COG-LL-355h
KARPAS-45 = system: KARPAS-45
TMD5 = system: TMD5
KASUMI-2 = system: KASUMI-2
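Further: ALL cell lines in 384-well plates, five doses spanning 10,000-fold, each plate scaled between vehicle and 100 µmol/L benzalkonium chloride controls, sDSS an adapted area-under-curve metric.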

Row | Structure (SMILES) | selective drug sensitivity score 380 | selective drug sensitivity score (MN-60) | selective drug sensitivity score (COG-LL-317) | selective drug sensitivity score (MHH-CALL-2) | selective drug sensitivity score (COG-LL-394h) | selective drug sensitivity score (NALM-6) | selective drug sensitivity score (P30-OHKUBO) | selective drug sensitivity score (ALL-SIL) | selective drug sensitivity score (SEM cells) | selective drug sensitivity score (PEER) | selective drug sensitivity score (MHH-CALL-4) | selective drug sensitivity score (SUP-B15) | selective drug sensitivity score (RPMI-8402) | selective drug sensitivity score (KOPN-8) | selective drug sensitivity score (HAL-01) | selective drug sensitivity score (ALL-PO) | selective drug sensitivity score (COG-LL-355h) | selective drug sensitivity score (KARPAS-45) | selective drug sensitivity score (TMD5) | selective drug sensitivity score (KASUMI-2)
1 | CNC(=O)c1ccccc1Sc1ccc2c(/C=C/c3ccccn3)n[nH]c2c1 [Axitinib] (top concentration 10000 nM) | 1.56 | -2.94 | 8.26 | -0.34 | 2.96 | 7.86 | 12.2 | 20.1 | 13.1 | 17.3 | -2.44 | 16.4 | 6.06 | 6.06 | -0.94 | 9.16 | -0.74 | 6.36 | 6.76 | 6.56
2 | Cc1c(N)nc([C@H](CC(N)=O)NC[C@H](N)C(N)=O)nc1C(=O)N[C@H](C(=O)N[C@H](C)[C@@H](O)[C@H](C)C(=O)N[C@H](C(=O)NCCc1nc(-c2nc(C(=O)NCCC[S+](C)C)cs2)cs1)[C@@H](C)O)[C@@H](O[C@@H]1O[C@@H](CO)[C@@H](O)[C@H](O)[C@@H]1O[C@H]1O[C@H](CO)[C@@H](O)[C@H](OC(N)=O)[C@@H]1O)c1c[nH]cn1 [Bleomycin] (top concentration 10000 nM) | 4.34 | -1.86 | 5.14 | 3.14 | 2.24 | 5.74 | 4.44 | -1.36 | 11.1 | -0.66 | 4.54 | 6.44 | -1.36 | 7.34 | 8.44 | -1.76 | 4.14 | 1.94 | 7.34 | 6.44
3 | CC(C)C[C@H](NC(=O)[C@H](Cc1ccccc1)NC(=O)c1cnccn1)B(O)O [Bortezomib] (top concentration 1000 nM) | 1.42 | -3.38 | 3.02 | 3.82 | 2.42 | 1.82 | 4.72 | 4.72 | 12.9 | 2.32 | 3.92 | 8.42 | 2.72 | 3.42 | 4.12 | 4.82 | 5.92 | 1.42 | 2.32 | 1.42
4 | CCC/C=C/C=C/C(=O)O[C@H]1/C(=C/C(=O)OC)C[C@H]2C[C@H]([C@@H](C)O)OC(=O)C[C@H](O)C[C@@H]3C[C@H](OC(C)=O)C(C)(C)[C@](O)(C[C@@H]4C/C(=C/C(=O)OC)C[C@H](/C=C/C(C)(C)[C@]1(O)O2)O4)O3 [Bryostatin_1] (top concentration 100 nM) | -7.12 | -7.12 | -6.82 | 8.68 | -5.92 | -7.12 | 20.2 | -7.12 | -7.12 | -7.12 | -7.12 | 15.6 | -4.52 | 26.9 | 0.08 | -7.12 | -7.12 | -7.12 | -7.12 | -7.12
5 | CO[C@H]1CC[C@H](N2C(=O)CNc3ncc(-c4ccc(C(C)(C)O)nc4)nc32)CC1 [CC-223] (top concentration 10000 nM) | 13 | 1.32 | -0.48 | 6.42 | -2.28 | 1.42 | 3.12 | 1.32 | 0.72 | 1.02 | 1.52 | -1.38 | 0.62 | 8.12 | 6.32 | 0.22 | 1.12 | 2.22 | 6.12 | 7.92
6 | CN(C)c1cc2c(cc1Sc1nc3c(N)nccc3n1CCNCC(C)(C)C)OCO2 [CUDC-305] (top concentration 10000 nM) | 3.22 | 1.42 | 7.62 | 1.02 | -1.28 | 4.72 | 1.72 | 3.02 | 5.12 | 0.42 | 0.92 | 3.22 | 1.42 | 4.32 | 3.32 | 7.52 | 2.42 | 5.02 | 1.82 | -0.28
7 | CO[C@H]1C(=O)[C@]2(C)[C@@H](OC)C[C@H]3OC[C@@]3(OC(C)=O)[C@H]2[C@H](OC(=O)c2ccccc2)[C@]2(O)C[C@H](OC(=O)[C@H](O)[C@@H](NC(=O)OC(C)(C)C)c3ccccc3)C(C)=C1C2(C)C [Cabazitaxel] (top concentration 1000 nM) | 25.7 | -5.32 | 26.2 | 15.9 | 6.08 | 15.9 | 20.3 | 19.3 | 19.5 | 23 | 3.58 | 21.9 | 15.5 | 17.9 | 11.7 | 15.1 | 2.58 | 18.9 | 2.88 | 17.5
8 | C=CC(=O)Nc1cc2c(Nc3ccc(F)c(Cl)c3)ncnc2cc1OCCCN1CCOCC1 [Canertinib] (top concentration 10000 nM) | 3.16 | -4.14 | 2.96 | 3.16 | 1.56 | -1.34 | 2.26 | 5.16 | 2.56 | 2.26 | 1.66 | 3.16 | -1.54 | 4.36 | 2.76 | 2.86 | 5.96 | -0.24 | 4.96 | 1.86
9 | CC(C)C[C@H](NC(=O)[C@H](CCc1ccccc1)NC(=O)CN1CCOCC1)C(=O)N[C@@H](Cc1ccccc1)C(=O)N[C@@H](CC(C)C)C(=O)[C@@]1(C)CO1 [Carfilzomib] (top concentration 1000 nM) | 0.06 | -7.34 | 1.06 | 1.56 | 0.26 | 1.06 | 3.46 | 1.66 | 8.56 | 2.56 | 1.56 | 4.56 | -2.74 | 1.46 | -8.84 | 4.76 | 5.06 | 0.66 | 0.16 | -0.04
10 | O=C(c1ccc(F)c(F)c1Nc1ccc(I)cc1F)N1CC(O)([C@@H]2CCCCN2)C1 [Cobimetinib] (top concentration 1000 nM) | 0.82 | -3.68 | -3.68 | 0.42 | -2.48 | 2.62 | -3.68 | -2.98 | -2.48 | -2.78 | 2.62 | 6.62 | -3.68 | 2.12 | 0.32 | 0.92 | 5.02 | -3.68 | 1.32 | 4.22
11 | COc1c(OCCCN2CCOCC2)ccc2c1N=C(NC(=O)c1cnc(N)nc1)N1CCN=C21 [Copanlisib] (top concentration 1000 nM) | 14.4 | 0.48 | 6.08 | 6.18 | -0.82 | 8.18 | 10.1 | 0.38 | 4.18 | -5.82 | 9.28 | -2.12 | 2.58 | 4.98 | 12.1 | 8.28 | 12.2 | 3.38 | -5.32 | 4.18
12 | Cn1c(=O)n(-c2ccc(C(C)(C)C#N)cc2)c2c3cc(-c4cnc5ccccc5c4)ccc3ncc21 [Dactolisib] (top concentration 1000 nM) | 17.5 | 8.66 | 2.26 | 9.36 | -3.94 | 6.36 | 14.8 | 4.96 | 10.4 | 5.06 | 4.06 | 10.3 | 7.76 | 15.1 | 9.66 | 4.56 | 3.46 | 6.56 | 4.46 | 9.06
13 | O=C(/C=C/c1cccnc1)NCCCCC1CCN(C(=O)c2ccccc2)CC1 [Daporinad] (top concentration 1000 nM) | 14.7 | 6.66 | 17.7 | 11.4 | -4.44 | 15.6 | 16 | 9.46 | 17.2 | 8.76 | 7.66 | 19.4 | 16.3 | 19.8 | 7.26 | 13.8 | 11 | 18.4 | 4.46 | 8.66
14 | CC(=O)N(O)CCCCCNC(=O)CCC(=O)N(O)CCCCCNC(=O)CCC(=O)N(O)CCCCCN [Deferoxamine] (top concentration 10000 nM) | 1.96 | 5.16 | 18.4 | 7.66 | 0.76 | 5.06 | 0.76 | 3.56 | 2.66 | 2.16 | -0.84 | 4.76 | 2.06 | 10.4 | 8.46 | 2.56 | 1.46 | 5.16 | -0.24 | -0.74
15 | Cc1cc(Nc2cc(N3CCN(C)CC3)nc(/C=C/c3ccccc3)n2)n[nH]1 [ENMD-2076] (top concentration 10000 nM) | 2.54 | -1.46 | 5.14 | 5.44 | 1.44 | 5.44 | 8.94 | 8.94 | 15 | 7.14 | 0.34 | 4.74 | 1.44 | 8.34 | 5.54 | 10.3 | 4.04 | 5.14 | -0.26 | -4.76
16 | Cc1cnc(Nc2ccc(OCCN3CCCC3)cc2)nc1Nc1cccc(S(=O)(=O)NC(C)(C)C)c1 [Fedratinib] (top concentration 10000 nM) | -6.96 | -4.06 | -3.36 | -0.26 | 0.14 | -1.26 | -2.16 | 0.84 | 2.74 | -0.16 | -1.36 | -0.66 | -2.16 | -0.76 | -1.96 | 3.24 | 3.84 | 0.04 | -2.26 | -6.16
17 | COc1ccc(-c2nc(N3CCOCC3)c3sc(CN(C)c4ncc(C(=O)NO)cn4)cc3n2)cn1 [Fimepinostat (CUDC-907)] (top concentration 10000 nM) | 10.3 | -1.22 | 7.58 | 10.3 | 3.28 | 8.68 | 8.68 | 8.98 | 8.68 | 1.98 | 9.68 | 10.7 | 5.28 | 10.9 | 0.98 | 6.48 | 7.28 | 9.58 | 5.18 | 8.88
